The compounds below were run on HRV14 (assay: Inhibitory activity against human rhinovirus infection and replication (quantitative real-time PCR)). Details: Human rhinovirus sp., MRC5; 100 nmol/L test compound; MRC-5 cells infected with HRV14 at MOI=0.2; 48 hours; viral load normalized to 18s rRNA; read-out: Percent Inhibition.
Format: cell-based
Experimental: Evaluation of inhibitory activity against human rhinovirus infection and replication (by quantitative real-time PCR)
A required amount of a test compound was weighed off and dissolved in dimethyl sulfoxide (DMSO) to yield a 10 mmol/L stock solution. Next, the stock solution was diluted with a medium for viral infection (minimum essential medium (MEM) supplemented with 2% fetal bovine serum, 5% Tryptose phosphate broth, and 30 mmol/L MgCl2) to prepare 100 nmol/L and 1000 nmol/L of test compound solutions. MRC-5 (human fetal lung fibroblast: ATCC) was suspended at a density of 30000 cells/mL in cell culture medium (MEM supplemented with 10% fetal bovine serum), and 625 μL of the suspension per well was seeded into a 24-well cell culture plate and cultured at 37° C. in 5% CO2. After 72 hours, it was confirmed that the plate had become 80% confluent. The plate was washed with 625 μL of phosphate-buffered physiological saline (Ca/Mg-free; PBS-) once, and 625 μL of the test compound solution prepared just before use was immediately added to the plate. After 30 minutes, the medium was removed followed by addition of 187.5 μL of the test compound solution that had been prepared such that the cells were infected with HRV14 (ATCC) at multiplicity of infection (MOI)=0.2. The cells were then cultured at 35° C. in 5% CO2. After additional 2 hours, 625 μL of the test compound solution prepared just before use was added, and the cells were cultured at 35° C. in 5% CO2. After 48 hours, the cells were washed with 625 μL of PBS- once, and total RNA was extracted from the cells using RNeasy (R) plus kit (Qiagen) according to the manufacturer's instruction. Subsequently, cDNA was synthesized using High-Capacity cDNA Reverse Transcription Kit (Thermo Fisher Scientific). Finally, quantitative real-time PCR was performed in 7500 Fast Real-time PCR system (Life technologies) to measure HRV14 and 18s rRNA. The measurement protocol consisted of the initial denaturation phase at 95° C. for 20 seconds followed by 40 cycles of the denaturation step at 95° C. for 3 seconds and the annealing/elongation step at 60° C. for 30 seconds. The primers used were HRV14 forward primer set forth in SEQ ID NO: 1 and HRV14 reverse primer set forth in SEQ ID NO: 2, and the probe is set forth in SEQ ID NO: 3.
18s rRNA was measured using Eukaryotic 18S rRNA Endogenous Control (Applied Biosystems). According to Equation 1, 18s ribosomal RNA was used as an internal standard to normalize the viral load of HRV14: Viral load of HRV14=The amount of HRV14 in virus-infected cells/the amount of 18s rRNA in virus-infected cells Equation 1
Inhibitory activity of test compounds was calculated as a percent inhibition (%) according to Equation 2: Percent inhibition (%)=[the viral load of HRV in virus-infected cells in the absence of the test compound −the viral load of HRV in virus-infected cells in the presence of the test compound]/[the viral load of HRV in virus-infected cells in the absence of the test compound]×100 Equation 2
The results of using 100 nmol/L test compound solutions were shown in the tables below according to Examples. In the tables, percent inhibition was expressed as follows: percent inhibition >80%: +++, 80%≥percent inhibition >50%: ++, and 50%≥percent inhibition:+.
Compound `COc1ccc(-c2c(C)nc3sc(C(C)(C)O)nn23)cc1S(=O)(=O)N[C@H]1CC[C@H](O)CC1` [Example 1-1] has an inhibition at 0.1 µM of 50 to 80%. With `Cc1nc2sc(C(C)(C)O)cn2c1-c1ccc(Cl)c(S(=O)(=O)N[C@H]2CC[C@@H](O)CC2)c1` [Example 1-2] the inhibition at 0.1 µM was ≤ 50%. In the case of `Cc1nc2sc(C(C)(C)O)cn2c1-c1ccc(OC(F)(F)F)c(S(=O)(=O)N[C@H]2CC[C@@H](O)CC2)c1` [Example 1-3], the inhibition at 0.1 µM is reported as ≤ 50%. `Cc1nc2sc(C(C)(C)C)cn2c1-c1ccc(Cl)c(S(=O)(=O)N[C@H]2CC[C@@H](O)CC2)c1` [Example 1-4] was tested, and the inhibition at 0.1 µM was > 80%. For `Cc1nc2sc(C3CC3)cn2c1-c1ccc(Cl)c(S(=O)(=O)N[C@H]2CC[C@@H](O)CC2)c1` [Example 1-5], the inhibition at 0.1 µM was 50 to 80%. In the case of `COc1ccc(-c2c(C)nc3sc(C(C)C)nn23)cc1S(=O)(=O)N[C@H]1CC[C@@H](O)CC1` [Example 1-6], the inhibition at 0.1 µM is reported as > 80%. `Cc1nc2sc(C(C)(C)O)nn2c1-c1ccc(Cl)c(S(=O)(=O)N[C@H]2CC[C@@H](O)CC2)c1` [Example 1-7] was tested, and the inhibition at 0.1 µM was > 80%. Work on `Cc1nc2sc(C(C)(C)OC3COC3)cn2c1-c1ccc(Cl)c(S(=O)(=O)N[C@H]2CC[C@@H](O)CC2)c1` [Example 1-8] yielded an inhibition at 0.1 µM of 50 to 80%. For `Cc1nc2sc(C(C)C)nn2c1-c1ccc(Cl)c(S(=O)(=O)N[C@H]2CC[C@@H](O)CC2)c1` [Example 1-9], the inhibition at 0.1 µM was > 80%. For `Cc1nc2sc(C(C)(C)C)cn2c1-c1ccc(C#N)c(S(=O)(=O)N[C@H]2CC[C@@H](O)CC2)c1` [Example 1-10], the inhibition at 0.1 µM was > 80%. In the case of `Cc1nc2sc(C(O)(C(F)(F)F)C(F)(F)F)cn2c1-c1ccc(Cl)c(S(=O)(=O)N[C@H]2CC[C@@H](O)CC2)c1` [Example 1-11], the inhibition at 0.1 µM is reported as ≤ 50%. For `COc1ccc(-c2c(C)nc3sc(C(OC)(C(F)(F)F)C(F)(F)F)cn23)cc1S(=O)(=O)N[C@H]1CC[C@@H](O)CC1` [Example 1-12], the inhibition at 0.1 µM was > 80%. With `COc1ncc(-c2c(C)nc3sc(C(C)(C)C)cn23)cc1S(=O)(=O)N[C@H]1CC[C@@H](O)CC1` [Example 1-13] the inhibition at 0.1 µM was > 80%. With `COc1ccc(-c2c(C)nc3sc(C(C)(C)O)nn23)cc1S(=O)(=O)N[C@H]1CC[C@@H](O)CC1` [Example 1-14] the inhibition at 0.1 µM was 50 to 80%. Compound `COc1ncc(-c2c(C)nc3sc(C4CC4)nn23)cc1S(=O)(=O)N[C@H]1CC[C@@H](O)CC1` [Example 1-16] has an inhibition at 0.1 µM of 50 to 80%. In the case of `Cc1nc2sc(C(C)(C)O)nn2c1-c1ccc(OC(F)(F)F)c(S(=O)(=O)N[C@H]2CC[C@@H](O)CC2)c1` [Example 1-17], the inhibition at 0.1 µM is reported as > 80%. In the case of `COc1ncc(-c2c(C)nc3sc(C(C)(C)C#N)nn23)cc1S(=O)(=O)N[C@H]1CC[C@@H](O)CC1` [Example 1-18], the inhibition at 0.1 µM is reported as 50 to 80%. `Cc1nc2sc(C(C)(C)O)cn2c1-c1ccc(C(F)(F)F)c(S(=O)(=O)N[C@H]2CC[C@@H](O)CC2)c1` [Example 1-19] was tested, and the inhibition at 0.1 µM was > 80%. For `COc1ccc(-c2c(C)nc3sc(C(C)(C)C#N)nn23)cc1S(=O)(=O)N[C@H]1CC[C@@H](O)CC1` [Example 1-20], the inhibition at 0.1 µM was > 80%. With `COc1ncc(-c2c(C)nc3sc(C(C)(C)O)nn23)cc1S(=O)(=O)N[C@H]1CC[C@@H](O)CC1` [Example 1-21] the inhibition at 0.1 µM was ≤ 50%. With `CCOC(=O)C(C)(C)c1nn2c(-c3ccc(OC)c(S(=O)(=O)N[C@H]4CC[C@@H](O)CC4)c3)c(C)nc2s1` [Example 1-22] the inhibition at 0.1 µM was > 80%. For `COC(=O)C(C)(C)c1nn2c(-c3cnc(OC)c(S(=O)(=O)N[C@H]4CC[C@@H](O)CC4)c3)c(C)nc2s1` [Example 1-23], the inhibition at 0.1 µM was > 80%. For `COc1ncc(-c2c(C)nc3sc(C(C)(C)O)nn23)cc1S(=O)(=O)N[C@H]1CC[C@H](O)CC1` [Example 1-24], the inhibition at 0.1 µM was ≤ 50%. `Cc1nc2sc(C(C)(C)O)nn2c1-c1ccc(C(F)(F)F)c(S(=O)(=O)N[C@H]2CC[C@H](O)CC2)c1` [Example 1-25] was tested, and the inhibition at 0.1 µM was > 80%. `Cc1nc2sc(C(C)(C)O)nn2c1-c1ccc(C(F)(F)F)c(S(=O)(=O)N[C@H]2CC[C@@H](O)CC2)c1` [Example 1-26] was tested, and the inhibition at 0.1 µM was > 80%.
